The source of these data is patent US8609695B2, “Methods of treating and/or suppressing insulin resistance” (Endorecherche, Inc., priority 1999, dated 2013).

One assay deals with OVX Sprague-Dawley Rat. The experiment in a line: 11-month combination treatment DHEA + EM-800, body weight (Example 2). In kind it is in vivo. The note with it: OVX rats, 11 months. The text has this:
1.1 Test Compounds: • DHEA: Available from Steraloids Inc. Wilton, N.H. Lot: H137; • EM-800 is synthesized at the UCPO Department of Lab. of Mol. Endo., CHUL.
1.2 Vehicle • a) Gelatin: Lab-Grade, ACP Chemicals Inc., Montreal, Qc. Lot# F0195 • b) Ethanol: Commercial Alcohols Inc., Brampton, Ontario. Lot No. 11296 • c) Polyethylene Glycol-600 (PEG-600): Omega Chemical Company Inc., Lévis, Quebec. Lot#: 00-0117-EZ • d) Normal Saline: 0.9% Sodium Chloride irrigation USP. Abbott Laboratories Limited, St-Laurent, Qc. • e) Propylene Glycol (1, 2-Propanediol, PPG): Sigma Chemical Co., St-Louis, Mo. • g) Vehicle 1: 4% ETOH-4% PEG-600-1% gelatin-0.9% NaCl—H2O for Subcutaneous Injection. • h) Vehicle 2: 50% ETOH-50% PPG for Topical Application.
3.1 Perapartion of Vehicle and Test Articles • a) Preparation of EM-800: • EM-800 or both of them will be dissolved in ETOH:PEG-600 (1:1) with agitation on Fisher Scientific Stirring Hot Plate, then, 1% GNS will be added to the required volume. • b) Preparation of DHEA: • DHEA is dissolved in 50% ETOH, 50% PPG by agitation.
3.2 Animal Preparation and Treatments • Animals will be treated once daily as indicated on Item 6.1. DHEA, prepared in 50% ETOH, 50% PPG, will be percutaneously applied (P.C.) to corresponding animals once daily (I.D.) in a volume of 0.5 ml. […]

Assay [1] relates to ovariectomized female rats. The assay can be described thus: Uterine weight, fat and lipid, 20-day treatment (Example 13). The note with it: 20 days. In kind it is in vivo, Rattus norvegicus. The procedure:
The objective of this study was to compare the effect on uterine, weight, fat and blood lipids following treatment with EM-652.HCl, ERA-923 and lasofoxifene, administered alone or in combination with EM-652.HCl, to ovariectomized female rats. For this purpose, each compound was administered orally for 20 days to ovariectomized female rats and at the end of the treatment period, the uterus and fat were collected and weighed.
d) Diet: • Certified Rodent feed (Lab Diet #5002, pellets) and tap water were provided ad libitum. Randomization:
Seventy rats were separated into 7 groups of 9 to 11 animals for conduct of the study outlined below:
Animals from groups 2 to 9 were ovariectomized under Isoflurane-induced anesthesia on Day 7 of the study.
The vehicle or tested compounds were given as suspension in 0.4% methylcellulose by oral gavage (0.5 ml/gavage/rat) from Day 2 to Day 21 of the study.
Rats were weighed on Study Day 1 and at the necropsy (SD 22).
Approximately 24 hours after the last dosing, overnight fasted rats under Isoflurane-induced anesthesia were killed by exsanguination at the abdominal aorta.
Uteri and retroperitonal adipose tissue were removed and weighed.

The test system of assay [2] is lean and obese Zucker male rats. The experiment in a line: Energy balance and lipid-lipoprotein metabolism in Zucker male rats (Example 8A). The note with it: for Lipoprotein lipase activity White retroperitoneal / Lipoprotein lipase activity soleus / Plasma glucose / Plasma insulin / Plasma total cholesterol / Plasma triglycerides / Weight gain: 2.5 mg/kg orally once daily, 14 days; for decrease of body weight gain / reduction of plasma insulin: 2.5 mg/kg/day. In kind it is in vivo, Rattus norvegicus. The method, then: The objective of this study was to determine the effect of EM-652.HCl on energy balance and lipid-lipoprotein metabolism in lean and obese Zucker male rats. For this purpose, EM-652.HCl (2.5 mg/kg) was administered orally (gavage) once daily for 14 days to intact lean and obese Zucker male rats.
d) Diet: During the acclimation period, rats received a commercial rodent diet (Purina, #5075) and tap water ad libitum. During study period, rats received the following diet (diet #3) composed of (g/100 g): Starch, 31.2; Dextrose, 31.2; Casein, 20.0; Corn oil, 6.4; dl-Methionine, 0.3; Vitamin mix, 1.0; AIN-76 mineral mix, 4.9; Fiber, 5.0.
Test groups: Sixteen lean and sixteen obese intact male rats were assigned to 4 groups of 8 rats for conduct of the study outlined below
Administration of the tested compound or vehicle started on Day 1 of the study. The tested compound EM-652.HCl was given as suspension in 0.4% methylcellulose by oral gavage (0.5 ml/gavage/rat) once daily for 14 days. Rats from control groups received the vehicle alone (0.5 ml/gavage/rat) for the same time period.
During the acclimation period, animals were weighed one day prior to the start of dosing for randomization. Then, rats were weighed on the first dosing day and every 2 days thereafter as well as on the day of necropsy. Body weights were recorded with a precision of 1 g.
Following an approximative 6-hour fasting period, animals were necropsied (approximately 30 hours after the last dosing). They were anesthesized with ketamine-xylazine and blood drawn by cardiac punction.
Blood lipids (Total cholesterol (CHOL) and Triglycerides (TG)) and glucose were measured on frozen plasma samples using the Boehringer Mannheim Diagnostic Hitachi 911 Analyzer (Boehringer Mannheim Diagnostic Laboratory Systems). Circulating hormones and substrates (Leptin, Insulin) were measured on frozen plasma samples with the following kits: • Leptin: Linco RLA kit • Insulin: Linco RIA kit Organs and Tissues Collected:
The retroperitoneal adipose tissue and the soleus (muscle) were collected and frozen in liquid nitrogen for further determination of lipoprotein lipase (LPL) activity. The prostate, testes (right and left together) and right seminal vesicle (empty of fluid) were weighed. The right seminal vesicles were discarded.

[3] abbreviates: OVX rats, commercial rodent diet, 0.5 mg oral, EM-652.HCl 2.5 mg in combinations.

`C[C@]12CC[C@H](O)CC1=CC[C@@H]1[C@@H]2CC[C@]2(C)C(=O)CC[C@@H]12` [DHEA, dehydroepiandrosterone]: in the assay with OVX Sprague-Dawley Rat (DHEA 12.5 mg daily, EM-800 daily), the “inhibition of the OVX stimulation of body weight” value was 87%. For the same molecule, the “Total weight” value in the assay on OVX Sprague-Dawley Rat (DHEA 12.5 mg/day/rat percutaneous, EM-800 100 μg/day/rat s.c.) stood at 490.8 ± 24.1 g.

For the molecule `CC1=C(c2ccc(O)cc2)[C@H](c2ccc(OCCN3CCCCC3)cc2)Oc2cc(O)ccc21.Cl` [EM-652.HCl, (S)-(+)-7-hydroxy-3-(4′-hydroxyphenyl)-4-methyl-2-(4″-(2′″-piperidino-ethoxy)phenyl)-2H-1-benxopyran hydrochloride], in assay [1] (0.5 mg), the “OVX-induced increase in total serum cholesterol levels” value is “completely prevented”. For the same molecule, in assay [1] (OVX rats, 0.5 mg), the “prevention of body weight increase induced by ovariectomy” value came out at 64%. Besides, in assay [1] (setting [3]), the Cholesterol is 1.00 ± 0.11 mmol/L and the “Final Body Weight” value was 238 ± 4 g. In assay [2] (lean Zucker male rats), the “Lipoprotein lipase activity White retroperitoneal” value is recorded as 1701 ± 348 μU/g protein, the “Lipoprotein lipase activity soleus” value is 69.5 ± 8.4 μU/g protein, the Plasma glucose turned out to be 9.35 ± 0.51 mmol/L and the Plasma insulin was found to be 0.062 ± 0.005 nmol/L. In assay [2] (lean Zucker male rats), this molecule returned a Plasma total cholesterol of 1.18 ± 0.09 mmol/L, a Plasma triglycerides of 1.52 ± 0.13 mmol/L and a Weight gain of 44.9 ± 3.5 g. Besides, in assay [2] (lean male Zucker rats), the “decrease of body weight gain” value was determined as 38% and the “reduction of plasma insulin” value was found to be 35%. In addition, in assay [2] (obese Zucker male rats), the “Lipoprotein lipase activity White retroperitoneal” value is 7046 ± 1185 μU/g protein, the “Lipoprotein lipase activity soleus” value is recorded as 58.1 ± 4.6 μU/g protein, the Plasma glucose worked out at 11.84 ± 0.62 mmol/L and the Plasma insulin is listed as 0.475 ± 0.087 nmol/L. Further, in assay [2] (obese Zucker male rats), the Plasma total cholesterol came to 2.28 ± 0.25 mmol/L, the Plasma triglycerides stood at 7.16 ± 1.06 mmol/L and the Weight gain turned out to be 71.6 ± 3.3 g. Further, in assay [2] (obese male Zucker rats), the “decrease of body weight gain” value was found to be 35% and the “reduction of plasma insulin” value turned out to be 57%.
